Experimental data reported in PMC3652196, “Pharmacometrics of 3-Methoxypterostilbene: A Component of Traditional Chinese Medicinal Plants” (Evidence-based Complementary and Alternative Medicine : eCAM, 2013).
Where “and” joins values, the source holds several entries; their conditions need not be identical. Equal values may be shown once. Entries after “also recorded” stand apart in the source; their conditions may differ.

Experiments:
[1] = Antioxidant capacity (inhibition of oxidation of ABTS to ABTS radical cation by metmyoglobin, Cayman kit); format: biochemical; conditions: for Antioxidant capacity (Trolox equivalents): n = 4, mean ± SEM
Protocol: The amount of ABTS^∙+ can be monitored spectrophotometrically. The degree of suppression of absorbance caused by the compound of interest is proportional to the concentration of […], which is expressed as Trolox equivalents (μg/mL). […] No additional dilution was employed. To run the assay, 10 μL of sample was combined with 10 μL metmyoglobin and 150 μL chromogen. Then, 40 μL of hydrogen peroxide working solution was added within 1 min to all the samples. The plate was covered and incubated on a shaker for 5 min at room temperature […]), and the absorbance was measured at 750 nm using the Synergy HT multiwell plate reader and Gen5 data analysis software (Biotek Instruments Inc., Winooski, VT, USA). The assay was performed in quadruplet. For more information regarding the assay protocol, please refer to the instructions for the kit (Antioxidant Assay Kit from Cayman Chemical—Cat. no. 709091).

[2] = biological target: T1, COX-1 (Ovis aries, UniProt P05979); assay: COX inhibitor screening assay (EIA of prostaglandins), COX-1; format: biochemical
T1 construct: purchased Cayman Chemical 560131
T1 sequence (P05979 25-600): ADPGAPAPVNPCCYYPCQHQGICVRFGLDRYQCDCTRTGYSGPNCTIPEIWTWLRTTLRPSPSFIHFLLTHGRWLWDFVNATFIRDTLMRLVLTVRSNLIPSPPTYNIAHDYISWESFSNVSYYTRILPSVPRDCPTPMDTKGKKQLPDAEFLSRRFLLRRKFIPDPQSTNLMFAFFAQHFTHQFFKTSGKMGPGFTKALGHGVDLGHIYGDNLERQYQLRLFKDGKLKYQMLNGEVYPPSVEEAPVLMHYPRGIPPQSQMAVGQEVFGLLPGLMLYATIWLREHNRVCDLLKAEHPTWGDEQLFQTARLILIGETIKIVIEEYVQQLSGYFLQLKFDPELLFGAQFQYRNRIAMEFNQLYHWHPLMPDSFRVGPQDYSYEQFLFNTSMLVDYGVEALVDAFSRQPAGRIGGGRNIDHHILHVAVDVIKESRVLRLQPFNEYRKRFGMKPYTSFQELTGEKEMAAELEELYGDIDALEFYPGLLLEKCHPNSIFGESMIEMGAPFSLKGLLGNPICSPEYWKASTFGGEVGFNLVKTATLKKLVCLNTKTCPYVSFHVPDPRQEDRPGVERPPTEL
Protocol: (§1) The inhibition of COX-1 and -2 by 3-methoxypterostilbene was measured through the use of a three-day commercial assay kit. The assay relied on the quantification of the prostanoid product based on enzyme immunoassay (EIA), which uses a nonspecific antibody for prostaglandins (PGs). The constant concentration of the PG-AChE-tracer and the varying concentrations of the PGs available to bind to the antiserum is inversely proportional to the concentration of free PGs in the well. For this assay, 3-methoxypterostilbene was dissolved in DMSO over the concentration range of 1–250 μg/mL. Ibuprofen and etodolac, COX-2 preferential NSAIDs, were dissolved in DMSO and used as controls over the concentration range of 1–250 μg/mL. Reagents were prepared according to the manufacturer's instructions that accompanied the kit. The ELISA plate for this purpose was read at an absorbance of 415 nm within 10 minutes at room temperature (23 ± 1°C) using the Synergy HT multiwell plate reader and Gen5 data analysis software (Biotek Instruments Inc., Winooski, VT, USA). The assay was performed in quadruplet. For more information regarding the assay protocol, please refer to the instructions for the kit (COX Inhibitor Screening Assay Kit from Cayman Chemical—Cat. no. 560131).

[3] = biological target: T2, COX-2 (Homo sapiens, UniProt P35354); assay: COX inhibitor screening assay (EIA of prostaglandins), COX-2; format: biochemical
T2 construct: purchased Cayman Chemical 560131
T2 sequence (P35354 18-604): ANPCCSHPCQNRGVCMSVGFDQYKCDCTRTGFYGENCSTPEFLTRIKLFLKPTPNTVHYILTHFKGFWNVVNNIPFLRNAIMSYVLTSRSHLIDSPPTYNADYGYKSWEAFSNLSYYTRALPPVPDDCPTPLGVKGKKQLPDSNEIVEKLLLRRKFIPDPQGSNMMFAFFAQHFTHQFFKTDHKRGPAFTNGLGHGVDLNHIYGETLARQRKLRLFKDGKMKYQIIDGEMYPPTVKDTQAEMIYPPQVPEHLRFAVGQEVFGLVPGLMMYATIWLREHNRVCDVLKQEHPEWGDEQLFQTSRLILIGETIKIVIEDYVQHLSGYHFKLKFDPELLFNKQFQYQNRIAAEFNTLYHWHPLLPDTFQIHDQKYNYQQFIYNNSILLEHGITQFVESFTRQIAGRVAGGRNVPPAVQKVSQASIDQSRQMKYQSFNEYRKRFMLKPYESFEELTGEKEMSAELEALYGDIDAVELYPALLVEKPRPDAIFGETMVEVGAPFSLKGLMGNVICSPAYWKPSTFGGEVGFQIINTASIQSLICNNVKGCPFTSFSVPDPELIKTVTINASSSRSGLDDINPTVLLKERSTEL
Protocol: as §1

[4] = system: α-glucosidase from Saccharomyces cerevisiae; assay: α-Glucosidase inhibition colorimetric assay (PNPG); format: biochemical; conditions: 0 to 200 μg/mL, n = 6
[5] = biological target: T3, α-amylase from porcine pancreas type VI-B (Sus scrofa, UniProt P00690); assay: α-Amylase inhibition colorimetric assay (BPNPG7, amylase HR reagent); format: biochemical
T3 construct: α-amylase from porcine pancreas type VI-B; purchased Sigma-Aldrich; host or cells: porcine pancreas
T3 sequence (P00690 16-511): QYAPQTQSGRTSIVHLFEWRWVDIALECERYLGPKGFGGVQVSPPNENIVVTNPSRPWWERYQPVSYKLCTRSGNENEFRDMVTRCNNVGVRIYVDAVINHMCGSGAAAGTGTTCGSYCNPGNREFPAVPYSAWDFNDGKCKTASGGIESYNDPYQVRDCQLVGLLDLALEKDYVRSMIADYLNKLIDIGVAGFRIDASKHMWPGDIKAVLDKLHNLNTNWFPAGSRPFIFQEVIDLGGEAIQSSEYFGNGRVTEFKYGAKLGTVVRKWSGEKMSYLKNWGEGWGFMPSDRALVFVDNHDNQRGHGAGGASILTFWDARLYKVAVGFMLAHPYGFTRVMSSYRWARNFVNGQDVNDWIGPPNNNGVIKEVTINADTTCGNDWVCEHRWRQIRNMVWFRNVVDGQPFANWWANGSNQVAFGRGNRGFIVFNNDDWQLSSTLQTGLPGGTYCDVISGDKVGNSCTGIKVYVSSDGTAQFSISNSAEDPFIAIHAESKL

[6] = system: human peripheral blood mononuclear cells; conditions: cited from earlier work
[7] = computer model; cited from earlier work

COc1cc(/C=C/c2ccc(O)c(OC)c2)cc(OC)c1 [3-methoxypterostilbene, trans-3,3′-5-trimethoxy-4′-hydro-xystilbene]
Antioxidant activity (in words) ([1]; 1-100 μg/mL): modest concentration-dependent antioxidant activity
Antioxidant capacity (Trolox equivalents) ([1]; at 1 μg/mL in DMSO): 98.6 ± 13.7 μg/mL and 0.394 ± 0.0546 mM
Antioxidant capacity (Trolox equivalents) ([1]; at 100 μg/mL in DMSO): 174 ± 2.70 μg/mL and 0.695 ± 0.0094 mM
COX-1 inhibition versus NSAIDs (in words) ([2]; 250 μg/mL, compared with ibuprofen and etodolac): significantly greater activity (P < 0.05) than the NSAIDs at low doses
COX-1 inhibitory activity (in words) ([2]; 1, 10 and 250 μg/mL): positive concentration-dependent inhibitory activity; also recorded: strong COX-1 inhibition comparable to two NSAIDs
COX-2 inhibition versus NSAIDs (in words) ([3]; 10 μg/mL): statistically greater inhibition (P < 0.05) than etodolac at 1 μg/mL and ibuprofen at 250 μg/mL
COX-2 inhibitory activity (in words) ([3]; 1, 10 and 250 μg/mL): moderate inhibition of COX-2
α-Glucosidase inhibition (in words) [4]: does not appear to exhibit greater inhibition at higher concentrations
α-Amylase inhibition (in words) ([5]; 0 to 200 μg/mL, n = 6): relatively weak inhibition of α-amylase
α-Amylase activity at the highest concentrations tested (in words) ([5]; highest concentrations tested): appears to increase activity of α-amylase
Inhibition of lipopolysaccharide-induced tissue factor expression [6]: as effective as resveratrol
Modeled antioxidant potency [7]: greater potency than resveratrol
